Assay results taken from ChEMBL document CHEMBL5370544, “Design, synthesis, and biological evaluation of 1-styrenyl isoquinoline derivatives for anti-hepatocellular carcinoma activity and effect on mitochondria” (Eur J Med Chem, 2023).
The source made the active and inactive calls.

How the values were obtained:
SK-HEP1 [1] = assay: Antiproliferative activity against human SK-HEP1 cells assessed as inhibition of cell growth upto 2 uM by MTT assay; type: functional, cell-based; conditions: time 72.0 hrs, TDE = time-dependent effect
SK-HEP1 [2] = assay: Induction of apoptosis in human SK-HEP1 cells assessed as genomic DNA fragmentation at 1.5 to 13.5 uM incubated for 24 hrs by giemsa staining based micrscopic analysis; type: functional, cell-based; conditions: dose 1.5-13.5 µM
SK-HEP1 [3] = assay: Induction of cell cycle arrest in human SK-HEP1 cells assessed as decrease in CDK1 expression incubated for 48 hrs by Western blotting analysis; type: functional, cell-based; conditions: dose 1.5-13.5 µM
Huh-7 [4] = assay: Induction of apoptosis in human Huh-7 cells assessed as inhibition of Bcl-2 expression incubated for 48 hrs by Western blotting analysis; type: functional, cell-based; conditions: dose 0.9-8.1 µM
Huh-7 [5] = assay: Induction of apoptosis in human Huh-7 cells assessed as cell membrane blebbing at 0.9 to 8.1 uM incubated for 24 hrs by giemsa staining based micrscopic analysis; type: functional; conditions: dose 0.9-8.1 µM
SK-HEP1 [6] = assay: Antiinvasive activity in human SK-HEP1 cells assessed as reduction in number of invasive cells at 1.25 to 5 uM incubated for 24 hrs by transwell invasion assay; type: functional, cell-based; conditions: dose 1.25-5 µM

Measured: Activity

CC(=O)Oc1ccccc1/C=C/c1nccc2ccccc12
active: SK-HEP1 [1] Tde | SK-HEP1 [2] | SK-HEP1 [3] Dose-Dependent Effect | Huh-7 [4] Dose-Dependent Effect | Huh-7 [5] | SK-HEP1 [6]
